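A five-concentration, 48-hour dose response in 96-well plates underlies each endpoint, interpolated linearly between surrounding concentrations. Here, GI50 denotes the concentration required for 50% inhibition of growth. TGI: total growth inhibition.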
What was measured:
Experiment in all cases: inhibition of tumour cell growth, NCI panel, 48 h
786-0 renal = test system: 786-0 renal
A549 NSCLC = test system: A549 NSCLC
CAKI-1 renal = test system: CAKI-1 renal
OVCAR-4 ovarian = test system: OVCAR-4 ovarian
UO-31 renal = test system: UO-31 renal
MOLT-4 leukemia = test system: MOLT-4 leukemia
SK-MEL-5 melanoma = test system: SK-MEL-5 melanoma
UACC-257 melanoma = test system: UACC-257 melanoma
T-47D breast = test system: T-47D breast
MDA-MB-231 breast = test system: MDA-MB-231 breast

Row | Structure (SMILES) | TGI (786-0 renal) | TGI (A549 NSCLC) | TGI (CAKI-1 renal) | TGI (OVCAR-4 ovarian) | TGI (UO-31 renal) | TGI (MOLT-4 leukemia) | TGI (SK-MEL-5 melanoma) | TGI (UACC-257 melanoma) | GI50 (786-0 renal) | GI50 (A549 NSCLC) | GI50 (CAKI-1 renal) | GI50 (SK-MEL-5 melanoma) | GI50 (T-47D breast) | TGI (T-47D breast) | GI50 (UACC-257 melanoma) | GI50 (MDA-MB-231 breast) | TGI (MDA-MB-231 breast) | GI50 (MOLT-4 leukemia) | GI50 (OVCAR-4 ovarian) | GI50 (UO-31 renal)
1 | O=C(O)/C(Cl)=C(\Cl)Nc1cccc(C(F)(F)F)c1 | > 100 µM | > 100 µM | > 100 µM | > 100 µM | > 100 µM |  |  |  |  |  |  |  |  |  |  |  |  |  |  | 
2 | CN1CCC23c4c5ccc(O)c4OC2C(=NN=C2CCC4(O)C6Cc7ccc(O)c8c7C4(CCN6C)C2O8)CCC3(O)C1C5 (stereo not drawn) | > 100 µM | > 100 µM | > 100 µM | > 100 µM | > 100 µM | > 100 µM | > 100 µM | > 100 µM |  |  |  |  |  |  |  |  |  |  |  | 
3 | COC(=O)C1=CC(O)CCC1c1ccc(OC)cc1 (stereo not drawn) | > 100 µM | > 100 µM | > 100 µM | > 100 µM | > 100 µM | > 100 µM | > 100 µM | > 100 µM |  |  |  |  |  |  |  |  |  |  |  | 
4 | CCc1ccccc1NC(=O)/C(CC(=O)c1c(C)n([O-])c2ccccc2[n+]1=O)=N\NS(=O)(=O)c1ccc(C)cc1 | > 100 µM | > 100 µM |  | 90.4 µM | > 100 µM | 42.6 µM |  | 82.1 µM |  |  |  |  |  |  |  |  |  |  |  | 
5 | Cc1ccc(-c2csc(N(C(=O)N3CCN(c4cc5c(cc4F)c(=O)c(C(=O)O)cn5C4CC4)CC3)c3ccccc3)n2)cc1 | 1.83 µM | > 100 µM | > 100 µM |  |  |  | > 100 µM | > 100 µM | 0.292 µM | 0.372 µM | 0.373 µM | 0.541 µM | 0.381 µM | > 100 µM | 0.372 µM |  |  |  |  | 
6 | CC(=O)O[C@H](C[C@H](C(C)C)N(C)C(=O)[C@@H](NC(=O)[C@H]1CCCCN1C)C(C)C)c1nc(C(=O)N[C@@H](Cc2ccccc2)C[C@H](C)C(=O)O)c(C)s1 | > 25 µM | > 25 µM |  | > 25 µM | > 25 µM | > 25 µM | 0.0144 µM | > 25 µM | < 0.0025 µM | 0.00532 µM |  | < 0.0025 µM |  |  | > 25 µM | < 0.0025 µM | > 25 µM | < 0.0025 µM | > 25 µM | 0.0161 µM
7 | COc1cc(C(=O)C/C(CCC(=O)Nc2ccccc2[N+](=O)[O-])=N\NC(=O)C(N)=O)ccc1O | > 100 µM | > 100 µM | > 100 µM | > 100 µM | > 100 µM | > 100 µM |  | > 100 µM |  |  |  |  |  |  |  |  |  |  |  | 
8 | CC[C@H](C)c1occ2c(O)c(C(=O)O)c(=O)cc-2c1C | > 100 µM | > 100 µM | > 100 µM | 68.2 µM |  | 54.3 µM | 38.1 µM | > 100 µM |  |  |  |  |  | 56.4 µM |  |  | 50.6 µM |  |  | 
9 | COc1ccc2cc(C(=O)c3ccccc3C(=O)O)ccc2c1 | > 100 µM | > 100 µM | > 100 µM | > 100 µM | > 100 µM | > 100 µM | > 100 µM | > 100 µM |  |  |  |  |  |  |  |  |  |  |  | 
10 | Cc1nc(NC(=S)NC(=O)c2ccc(Cl)c(Cl)c2)sc1C(=O)/C=C/c1ccccc1[N+](=O)[O-] | 33.5 µM | 60.3 µM | 47.3 µM | 88.2 µM | 45.6 µM | 52.6 µM |  | 89.1 µM |  |  |  |  |  |  |  |  |  |  |  | 
11 | COC1=CC(=O)c2ccc(C(C)C)cc2C1(C)C1=NC(C)(C)CO1 (stereo not drawn) | > 100 µM | > 100 µM | > 100 µM | > 100 µM | > 100 µM | > 100 µM | > 100 µM | > 100 µM |  |  |  |  |  |  |  |  |  |  |  | 
12 | C[C@H](c1ccc(Cl)cc1N)N1C(=O)c2cc(I)ccc2N(CCCN2CCN(C)CC2)C(=O)[C@@H]1c1ccc(Cl)cc1 | 3.37 µM | 2.57 µM | 2.81 µM | 3.43 µM | 1.9 µM | 3.59 µM | 2.92 µM | 2.69 µM | 1.83 µM | 1.3 µM | 1.3 µM | 1.57 µM |  |  | 1.24 µM | 1.53 µM | 2.97 µM | 1.75 µM | 1.74 µM | 0.359 µM
13 | Nc1ccccc1NC(=O)c1ccc(CSc2nc(N3CCOCC3)c3cccn3n2)cc1 | 5.48 µM | > 100 µM |  | > 100 µM | 3.61 µM |  | 1.61 µM | 4.54 µM | 0.988 µM | 0.977 µM |  | 0.415 µM | 0.498 µM | > 100 µM | 0.549 µM | 0.806 µM | 11.7 µM |  | 2.47 µM | 0.412 µM
14 | COc1ccccc1/C=C/C(=O)c1sc(-c2cccnc2)nc1C | > 100 µM | > 100 µM | > 100 µM |  | > 100 µM | > 100 µM | > 100 µM | > 100 µM |  |  |  |  |  |  |  |  |  |  |  | 
15 | CCCCCCCC[N+](C)(C)Cc1ccc(C[N+](C)(C)CCCCCCCC)cc1 | > 100 µM | > 100 µM | > 100 µM | > 100 µM | > 100 µM | > 100 µM | > 100 µM | > 100 µM |  |  |  |  |  |  |  |  |  |  |  | 
16 | O=C1C(=O)c2cc([N+](=O)[O-])ccc2-c2ccccc21 | 3.39 µM | 3.56 µM | 3.21 µM | 2.66 µM | 2.86 µM |  | 3.2 µM | 3.13 µM | 1.97 µM | 1.9 µM | 1.67 µM | 1.8 µM | 1.76 µM | 3.77 µM | 1.7 µM | 1.64 µM | 3.15 µM |  | 1.25 µM | 1.45 µM
17 | CC(C#N)c1cn(S(=O)(=O)c2ccccc2)c2ccccc12 (stereo not drawn) | > 100 µM | > 100 µM | > 100 µM | > 100 µM | 62.4 µM | > 100 µM | 36.9 µM | > 100 µM |  |  |  |  |  |  |  |  |  |  |  | 
18 | O=c1c(O)c(-c2ccc(O)c(O)c2)oc2cc(O)ccc12 | > 91.5 µM | > 100 µM |  | > 100 µM | 23.4 µM | > 72.5 µM | 27.4 µM | > 67.7 µM |  |  |  |  |  |  |  |  |  |  |  | 
19 | C=C(C)C1CC=C(C(=O)O)CC1 (stereo not drawn) | 4700 µM | 3470 µM | 4080 µM | > 5000 µM | 4030 µM | > 5000 µM | 1450 µM | 3450 µM |  |  |  |  |  |  |  |  |  |  |  | 
20 | COc1cc2[nH]c(C(=O)c3cc(OC)c(OC)c(OC)c3)c(N)c2cc1C#CCO | > 100 µM | > 100 µM | > 100 µM | > 100 µM | 59 µM | > 100 µM | 1.3 µM |  | 0.373 µM | 0.969 µM | 0.537 µM | 0.087 µM |  |  |  | 0.629 µM | > 100 µM | 0.649 µM | 0.528 µM | 0.476 µM
21 | [N-]=[N+]=NC1(N=[N+]=[N-])C(=O)NN=C(c2ccccc2)C1=O (stereo not drawn) | > 100 µM | > 100 µM |  | > 100 µM | > 100 µM | 73.6 µM |  | > 100 µM |  |  |  |  |  | 94.3 µM |  |  | > 100 µM |  |  | 

— PubChem BioAssay (NCI)
